Test results taken from patent publication US4204038A, “Process for preparing antibiotics MA 144-M1 and MA 144-M2” (Zaidan Hojin Biseibutsu Kagaku Kenkyu Kai, priority 1976, dated 1980).
In brackets after ≈: the same amount, converted by molar mass.

Columns and labels:
[1] = Antitumor activity; type: in vivo; details: in words
[2] = system: Can. albicans IAM 4905; assay: Minimum inhibitory concentration by the broth dilution method; type: cell-based; details: Candida albicans, IAM4905; Can. albicans IAM 4905, broth dilution; read-out: Minimum inhibitory concentration (MIC)
Text: (§1) (1) MA 144-M1 and MA 144-M2 have antimicrobial activity against various kinds of microorganisms.

[3] = system: Bac. megaterium NRRL B-938; assay: as above; type: cell-based; details: Priestia megaterium, NRRLB938; Bac. megaterium NRRL B-938, broth dilution; read-out: Minimum inhibitory concentration (MIC)
Text: as §1

[4] = system: Staph. aureus Smith; assay: as above; type: cell-based; details: Staphylococcus aureus; Staph. aureus Smith, broth dilution; read-out: Minimum inhibitory concentration (MIC)
Text: as §1

[5] = system: Sarcina lutea ATCC 341; assay: as above; type: cell-based; details: Micrococcus luteus, ATCC341; Sarcina lutea ATCC 341, broth dilution; read-out: Minimum inhibitory concentration (MIC)
Text: as §1

[6] = system: Proteus morganii; assay: as above; type: cell-based; details: Morganella morganii; Proteus morganii (the Institute for Infectious Diseases), broth dilution; read-out: Minimum inhibitory concentration (MIC)
Text: as §1

[7] = system: Can. tropicalis IAM 4942; assay: as above; type: cell-based; details: Candida tropicalis, IAM4942; Can. tropicalis IAM 4942, broth dilution; read-out: Minimum inhibitory concentration (MIC)
Text: as §1

[8] = system: Ps. fluorescens NIH JB-254; assay: as above; type: cell-based; details: Pseudomonas fluorescens, NIHJB254; Ps. fluorescens NIH JB-254, broth dilution; read-out: Minimum inhibitory concentration (MIC)
Text: as §1

[9] = system: Mic. flavus; assay: as above; type: cell-based; details: Micrococcus flavus; Mic. flavus, broth dilution; read-out: Minimum inhibitory concentration (MIC)
Text: as §1

[10] = system: Strept. pyogenes NY 5; assay: as above; type: cell-based; details: Streptococcus pyogenes, NY5; Strept. pyogenes NY 5, broth dilution; read-out: Minimum inhibitory concentration (MIC)
Text: as §1

[11] = system: Staph. aureus FDA 209P; assay: as above; type: cell-based; details: Staphylococcus aureus, FDA209P; Staph. aureus FDA 209P, broth dilution; read-out: Minimum inhibitory concentration (MIC)
Text: as §1

[12] = system: Mycobact. smegmatis ATCC 607; assay: as above; type: cell-based; details: Mycobact. smegmatis ATCC 607, broth dilution; read-out: Minimum inhibitory concentration (MIC)
Text: as §1

[13] = system: Bac. subtilis ATCC 6633; assay: as above; type: cell-based; details: Bacillus subtilis, ATCC6633; Bac. subtilis ATCC 6633, broth dilution; read-out: Minimum inhibitory concentration (MIC)
Text: as §1

[14] = system: Bac. cereus ATCC 9634; assay: as above; type: cell-based; details: Bacillus cereus, ATCC9634; Bac. cereus ATCC 9634, broth dilution; read-out: Minimum inhibitory concentration (MIC)
Text: as §1

[15] = system: Cory. bovis; assay: as above; type: cell-based; details: Corynebacterium bovis; Cory. bovis, broth dilution; read-out: Minimum inhibitory concentration (MIC)
Text: as §1

[16] = system: gram-positive bacteria; assay: Antimicrobial activity against gram-positive bacteria; type: cell-based; details: in words
Text: as §1

[17] = Toxicity; details: in words
[18] = system: L1210 cells; assay: RNA synthesis in cultured L1210 cells; type: cell-based, mice; details: L1210 cells, in words
Procedure: In this experiment, L1210 cells were inoculated in RPMI 1640 medium (Nissui, Roswell Park Memorial Institute 1640) containing 10% calf serum and cultivated at 37° C. for 3 days in a CO2 incubator, and MA 144-M1, MA 144-M2 and ^14 C-precursor were added at various concentrations. Effects on the synthesis of protein, RNA and DNA were indicated by the 50% inhibition concentration (μg./ml.) as shown in the following table.

[19] = in vivo; details: Mouse
[20] = system: L1210; assay: Therapeutic effectiveness on L1210-bearing mice; type: in vivo; details: intraperitoneally, day 0 to day 10, CDF1-L1210
Procedure: (a) Therapeutic effectiveness on L1210-bearing mice
Drug was administered intraperitoneally

[21] = Basicity and lipophilicity
[22] = system: L1210 cells; assay: Cytotoxicity: growth of cultured L1210 cells; type: cell-based, mice
[23] = system: P388; assay: Therapeutic effectiveness on P388-bearing mice; type: in vivo; details: intraperitoneally, day 1 to day 9, CDF1-P388
Procedure: (b) Therapeutic effectiveness on P388-bearing mice
Drug was administered intraperitonally

[24] = in vivo; details: Rat
[25] = system: Sarcoma 180; assay: Therapeutic effectiveness on Sarcoma 180 solid tumor; type: in vivo, dd mice; details: intraperitoneally, day 1 to day 10; for Weight of tumor: control 1.68
Procedure: (c) Therapeutic effectiveness on Sarcoma 180 solid tumor
dd mice were inoculated with 2×10^6 cells of Sarcoma 180, and drug was administered intraperitoneally from day 1 to day 10.

CCC1(O)CC(OC2CC(N(C)C)C(OC3CC(O)C(OC4CCC(O)C(C)O4)C(C)O3)C(C)O2)c2c(cc3c(c2O)C(=O)c2c(O)ccc(O)c2C3=O)C1C(=O)OC (stereo not drawn) [MA 144-M2]
antitumor activity [1]: marked antitumor activity
MIC [2]: 50 µg/mL (≈ 60.2 µM)
MIC [3]: 0.78 µg/mL (≈ 0.94 µM)
MIC [4]: 0.1 µg/mL (≈ 0.12 µM)
MIC [5]: 0.05 µg/mL (≈ 0.0602 µM)
MIC [6]: > 100 µg/mL
MIC [7]: 100 µg/mL (≈ 120 µM)
MIC [8]: > 100 µg/mL
MIC [9]: 0.2 µg/mL (≈ 0.241 µM)
MIC [10]: 0.63 µg/mL (≈ 0.759 µM)
MIC [11]: 0.78 µg/mL (≈ 0.94 µM)
MIC [12]: 1.25 µg/mL (≈ 1.51 µM)
MIC [13]: 0.05 µg/mL (≈ 0.0602 µM)
MIC [14]: 0.05 µg/mL (≈ 0.0602 µM)
MIC [15]: 0.1 µg/mL (≈ 0.12 µM)
antimicrobial activity against gram-positive bacteria [16]: show antimicrobial activity against gram-positive bacteria
toxicity [17]: low toxicity
inhibition of RNA synthesis [18]: completely inhibited RNA synthesis
LD50 ([19]; ip): 12.5 mg/kg
LD50 ([19]; iv): 12 to 20 mg/kg
Prolongation of the survival time ([20]; 0.156 mg/kg/day): 116%
Prolongation of the survival time ([20]; 0.313 mg/kg/day): 144%
Prolongation of the survival time ([20]; 0.625 mg/kg/day): 192%
Prolongation of the survival time ([20]; 1.25 mg/kg/day): 200%
Prolongation of the survival time ([20]; 2.5 mg/kg/day): 85%
Prolongation of the survival time ([20]; 5 mg/kg/day): 46%
basicity [21]: Weakly basic
IC50 ([22]; Mus musculus, 72 h, cultured L1210 cells, 37° C., 3 days, read-out: ID50, Growth): 0.05 µg/mL (≈ 0.0602 µM)
inhibition of the growth of cultured L1210 cells ([22]; at the low concentration, in words): inhibited markedly
Prolongation of the survival time ([23]; 0.313 mg/kg/day): 125%
Prolongation of the survival time ([23]; 0.625 mg/kg/day): 148%
Prolongation of the survival time ([23]; 1.25 mg/kg/day): 206%
Prolongation of the survival time ([23]; 2.5 mg/kg/day): 83%
Prolongation of the survival time ([23]; 5 mg/kg/day): 57%
LD50 ([24]; ip): 10 to 15 mg/kg
LD50 ([24]; iv): 10 to 15 mg/kg
% Inhibition of tumor growth ([25]; 0.3 mg/kg/day): 16%
Weight of tumor ([25]; 0.3 mg/kg/day): 1.41 g
% Inhibition of tumor growth ([25]; 0.6 mg/kg/day): 46.5%
Weight of tumor ([25]; 0.6 mg/kg/day): 0.90 g
% Inhibition of tumor growth ([25]; 1.25 mg/kg/day): 76.8%
Weight of tumor ([25]; 1.25 mg/kg/day): 0.39 g
% Inhibition of tumor growth ([25]; 2.5 mg/kg/day): 83.3%
Weight of tumor ([25]; 2.5 mg/kg/day): 0.28 g
Weight of tumor ([25]; 5 mg/kg/day): toxic
